Source: publication PMC10509173, “Deep learning driven de novo drug design based on gastric proton pump structures” (Communications Biology, 2023)
Several values for one entry are separate records, joined by “and”; a condition that tells them apart may be missing. Equal values may be shown once.

Molecular target: H+,K+-ATPase (Sus scrofa, UniProt P19156)
Test: Dose-dependent inhibition of H+,K+-ATPase activity, membrane fractions
Conditions: for H+,K+-ATPase activity, raw data of dose-dependent inhibition: single replicate values
[1] = [PCAB] -3.30103 (log, unit not given)
[2] = [PCAB] -3.52288 (log, unit not given)
[3] = [PCAB] -4 (log, unit not given)
[4] = [PCAB] -4.30103 (log, unit not given)
[5] = [PCAB] -4.52288 (log, unit not given)
[6] = [PCAB] -5 (log, unit not given)
[7] = [PCAB] -5.52288 (log, unit not given)
[8] = [PCAB] -6 (log, unit not given)
[9] = [PCAB] -6.30103 (log, unit not given)
[10] = [PCAB] -7 (log, unit not given)
[11] = [PCAB] -8 (log, unit not given)
[12] = [PCAB] -11 (log, unit not given; possibly placeholder for no compound)

H+,K+-ATPase, sequence (P19156 2-1034 limits assumed): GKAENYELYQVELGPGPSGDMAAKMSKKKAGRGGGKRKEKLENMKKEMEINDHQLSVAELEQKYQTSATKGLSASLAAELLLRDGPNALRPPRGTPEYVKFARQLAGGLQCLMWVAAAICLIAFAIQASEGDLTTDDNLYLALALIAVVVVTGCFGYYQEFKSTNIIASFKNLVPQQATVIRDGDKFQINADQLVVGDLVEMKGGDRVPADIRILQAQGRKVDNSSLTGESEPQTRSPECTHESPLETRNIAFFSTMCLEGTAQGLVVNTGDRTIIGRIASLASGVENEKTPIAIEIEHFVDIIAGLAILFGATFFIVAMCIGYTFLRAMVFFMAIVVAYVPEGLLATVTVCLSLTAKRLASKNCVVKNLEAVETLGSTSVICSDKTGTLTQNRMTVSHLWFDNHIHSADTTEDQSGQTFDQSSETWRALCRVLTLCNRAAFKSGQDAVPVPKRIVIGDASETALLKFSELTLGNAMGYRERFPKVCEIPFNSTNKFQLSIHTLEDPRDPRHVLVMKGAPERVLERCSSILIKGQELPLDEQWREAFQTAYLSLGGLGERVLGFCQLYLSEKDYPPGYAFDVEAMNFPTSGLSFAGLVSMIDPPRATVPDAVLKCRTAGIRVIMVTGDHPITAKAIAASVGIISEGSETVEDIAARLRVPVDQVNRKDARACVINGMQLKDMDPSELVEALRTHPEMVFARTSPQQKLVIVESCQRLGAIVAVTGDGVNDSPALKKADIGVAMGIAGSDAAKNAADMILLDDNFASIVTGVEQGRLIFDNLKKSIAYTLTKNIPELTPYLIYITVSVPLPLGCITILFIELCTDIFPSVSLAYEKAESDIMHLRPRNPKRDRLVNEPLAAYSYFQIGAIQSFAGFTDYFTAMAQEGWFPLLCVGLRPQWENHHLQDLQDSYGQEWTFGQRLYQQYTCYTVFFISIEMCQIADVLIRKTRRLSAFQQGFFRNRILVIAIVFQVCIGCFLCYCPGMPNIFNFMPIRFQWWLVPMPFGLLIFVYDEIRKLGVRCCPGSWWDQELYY
H+,K+-ATPase, sequence (P18434 whole entry partner): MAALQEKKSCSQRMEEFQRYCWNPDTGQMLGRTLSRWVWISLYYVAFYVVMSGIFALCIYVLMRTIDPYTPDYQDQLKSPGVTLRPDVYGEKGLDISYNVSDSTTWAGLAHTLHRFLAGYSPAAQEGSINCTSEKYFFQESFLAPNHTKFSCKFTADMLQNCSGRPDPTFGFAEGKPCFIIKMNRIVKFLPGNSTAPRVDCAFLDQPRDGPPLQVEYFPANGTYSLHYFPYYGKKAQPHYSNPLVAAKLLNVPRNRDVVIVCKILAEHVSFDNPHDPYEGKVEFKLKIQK

SMILES | IC50 | H+,K+-ATPase activity, raw data of dose-dependent inhibition [1] | H+,K+-ATPase activity, raw data of dose-dependent inhibition [2] | H+,K+-ATPase activity, raw data of dose-dependent inhibition [3] | H+,K+-ATPase activity, raw data of dose-dependent inhibition [4] | H+,K+-ATPase activity, raw data of dose-dependent inhibition [5] | H+,K+-ATPase activity, raw data of dose-dependent inhibition [6] | H+,K+-ATPase activity, raw data of dose-dependent inhibition [7] | H+,K+-ATPase activity, raw data of dose-dependent inhibition [8] | H+,K+-ATPase activity, raw data of dose-dependent inhibition [9] | H+,K+-ATPase activity, raw data of dose-dependent inhibition [10] | H+,K+-ATPase activity, raw data of dose-dependent inhibition [11] | H+,K+-ATPase activity, raw data of dose-dependent inhibition [12]
CNCC#CCn1ccc2cccc(C#Cc3ccc(C)cc3)c21 [DQ-15] | 49.5 ± 4.9 µM | -1.23 and -0.26 and -1.44 and 5.07 and -1.8 and 2.8 | 9.09 and 3.72 and 0.29 and -0.76 and -0.99 and -0.84 | 11.93 and 13.25 and 13.98 and 12.44 and 11.99 | 53.33 and 67.11 and 32 and 29.38 and 36.06 and 36.79 | 62.91 and 87.02 and 102.29 and 102.11 and 98.15 and 100.59 | 104.78 and 109.76 and 109.66 and 114.82 and 111.02 and 110.28 | 106.28 and 113.44 and 111.13 and 112.65 and 113.7 and 115.05 | 99.17 and 105.14 and 103.4 and 101.49 and 105.23 and 103.02 | 96.59 and 101.3 and 102.53 and 104.37 and 103.52 and 105.02 | 93.78 and 100.85 and 99.97 and 100.06 and 104.3 and 100.32 | 98.75 and 101.8 and 99.85 and 100.74 and 97.88 and 98.55 | 102.57 and 105.77 and 99.66 and 98.21 and 98.11 and 102.51
CNCC#CCn1ccc2cccc(C#Cc3cccc(Cl)c3)c21 [DQ-16] | 89.4 ± 13.5 µM | 24.42 and 42.17 | 44.41 and 66.92 | 87.71 and 67.55 | 103.26 and 71.7 and 101.95 and 107.11 and 107.49 and 103.62 | 107.4 and 104.96 and 100.44 and 100.8 and 99.65 and 99.6 | 105.07 and 103.28 and 102.18 and 95.06 and 104.24 and 100.65 | 112.46 and 113.5 and 115.83 and 115.26 and 112.62 and 114.01 | 106.69 and 106.05 and 103.52 and 103.99 and 105.16 and 107.1 | 101.16 and 99.6 and 102.96 and 104.58 and 100.87 and 100.34 | 95.95 and 99.26 and 100.97 and 100.31 and 101.14 and 100.94 | 95.83 and 94.95 and 90.34 and 101.71 and 99.53 and 101.3 | 95.82 and 93.84 and 98.4 and 100.56 and 99.28 and 103.27
CNCc1ccc(OCc2c(Cl)cccc2OCc2ccccc2)cc1 [DQ-19] | 3.52 ± 0.22 µM | -0.65 and -0.09 and -0.18 (2×) and 0.39 and -0.03 | 1.38 and 2.32 and 2.04 and 1.91 and 2.46 and 2.13 | 10.36 and 10.46 and 8.18 and 7.73 and 7.75 and 7.91 | 16.41 and 15.72 and 6.63 and 6.46 and 5.99 and 5.93 | 18.62 (2×) and 17.28 and 17.05 and 16.78 and 16.42 | 27.04 and 27.03 and 26.28 and 26.11 and 26 and 25.46 | 56.8 and 57.52 and 52.1 and 50.99 and 52.47 and 50.98 | 77.41 and 78.78 and 71.45 and 74.76 and 72.12 and 73.47 | 84.8 and 85.13 and 83.98 and 84.02 and 82.9 and 83.28 | 91.5 and 92.21 and 96.4 and 96.06 and 98.84 and 94.11 | 95.21 and 97 and 100.13 and 98.68 and 100.43 and 97.42 | 95.94 and 97.66 and 99.42 and 99.81 and 100.11 and 99.03
CNCc1ccc(OCc2ccccc2OCc2ccc(Cl)cc2)cc1 [DQ-21] | 0.28 ± 0.02 µM | -1.36 and -1 and -1.49 and 3.72 and -1.45 and 1.58 | 0.39 and 0.54 and 0.08 and 0.18 and 0.41 and 0.55 | 3.33 and 3.13 and 3.68 and 3.03 and 3.2 and 3.37 | 4.45 and 4.77 and 4.44 and 4.84 and 4.43 and 4.67 | 6.47 and 6.44 and 6.31 and 6.43 and 6.29 and 6.56 | 7.76 and 7.75 and 7.99 (2×) and 7.89 and 7.77 | 11.96 and 12.26 and 11.83 and 11.89 and 11.45 and 12.14 | 23.55 and 22.68 and 22.58 and 21.83 and 22.75 and 23.52 | 36.33 and 33.31 and 34.67 and 35.15 and 34.9 and 34.74 | 76.22 and 75.51 and 71.53 and 74.65 and 69.37 | 101.03 and 99.43 and 98.88 and 100.2 and 98.66 and 98.58 | 102.52 and 101.98 and 100.28 and 101.48 and 100.07 and 102.84
